Laboratory results as given in patent US5132302A, “Use of aromatic aminoalkoxy derivatives for the treatment of troubles of the cerebrovascular system” (priority 1989, dated 1992).

What follows are compounds tested on isolated balisar artery of a rabbit (assay: test of contractions of the isolated balisar artery of a rabbit in a hypopotassic medium (contraction induced by KC1)). Details: Oryctolagus cuniculus, read-out: IC50 (concentrations which reduce by 50% the amplitude of the contraction induced by KC1).
Assay type: cell-based
Protocol: The protocol of this test is the following. The rabbit is anaesthetized with pentobarbital at a dose of 30 mg/kg then sacrificed by exsanguination and decapitated at the level of the third cervical vertebra. The balisar artery is removed (1.5 cm) between the vertebral arteries and the polygon of Willis. The balisar artery is then cut in a spiral at an angle of 45° . It is fixed by means of a curved needle between an L shaped glass carrier and a displacement sensor (Grass, type FT03). A mechanical tension of 500 mg is applied to the vessel before letting it reach its balance state.
For a period of an hour, the vessel is rinsed every twenty minutes until a stable level is obtained.
The tonic contraction consecutive to depolarization caused by KC1 is dependent on the calcic movements for it is abolished by the suppression of calcium in the survival medium.

Compound COc1cc(F)c(OC)c(OCCN2CCCCC2)c1C(O)CCc1ccc(O)cc1 (stereo not shown) [compound 72] has an IC50 of 3 nM.

Same assay, conditions: Oryctolagus cuniculus; isolated rabbit balisar artery; KC1 at 35 mmoles; read-out: IC50 (concentrations which reduce by 50% the amplitude of the contraction induced by KC1)

Point of comparison: COc1ccc(OC)c(C(O)CCc2ccc(O)cc2)c1OCCN1CCCCC1 (stereo not shown) [compound 10], IC50 26 nM. Against it:
- COc1ccc(OC)c(C(O)CCc2ccccc2)c1OCCN1CCCCC1 (stereo not shown) [compound 3] — 15-fold higher, 400 nM
- COc1cc(Cl)c(OC)c(OCCN2CCCCC2)c1C(O)CCc1ccc(O)cc1 (stereo not shown) [compound 69] — 11-fold lower, 2.3 nM
- CCN(CC)CCOc1c(OC)c(Cl)cc(OC)c1C(O)CCc1ccc(O)cc1 (stereo not shown) [compound 70] — 3.6-fold lower, 7.2 nM
- COc1cc(Cl)c(OC)c(OCCN(C(C)C)C(C)C)c1C(O)CCc1ccc(O)cc1 (stereo not shown) [compound 71] — 2.7-fold lower, 9.8 nM
- COc1cc([N+](=O)[O-])c(OC)c(C(O)CCc2ccc(O)cc2)c1OCCN1CCCCC1 (stereo not shown) [compound 74] — 19-fold lower, 1.4 nM
